Results reported in patent US20190184069A1, “ANTIMICROBIAL COMPOSITIONS COMPRISING MINOCYCLINE AND DEGRADATION PRODUCTS OF OXIDIZED CELLULOSE” (Omrix Biopharmaceuticals Ltd., priority 2017, published 2019).
Entries after “also recorded” stand apart in the source; their conditions may differ.

Columns and labels:
S. aureus [1] = assay: Primary stage MIC measurement of antibiotic alone (OD 600 nm growth curves, 18 h); format: cell-based, Staphylococcus aureus
Excerpt: The following day, the turbidity of the actively-growing broth culture was adjusted with Calcium-adjusted Mueller Hinton broth II (MHBII) to be equivalent to that of a 0.5 McFarland standard (1×10^8 CFU/ml). The broth culture was maintained under ambient conditions prior to use.
The method used in this stage was based on the classic Minimum Inhibitory Concentration (MIC) measurements, as described by the Clinical and Laboratory Standards Institute (CLSI) document M07-A9: “Method for Dilution Antimicrobial Susceptibility Test for Bacteria that Grow Aerobically”. While classic MIC measurements require visual inspection of plates for bacterial growth after 18 hours, growth was monitored in the present study according to optical density (OD) at 600 nm, using an ELISA reader (MultiSkan™ FC ELISA reader, Thermo Fisher Scientific, Massachusetts, USA), thereby obtaining bacterial growth curves for tested antibiotic solutions.
Columns 1 and 3-12: 100 μl of MHBII alone was added to each well.
[…]: 200 μl of a solution of antibiotic in MHBII at the highest concentration to be tested was added to each well.
A series of 2-fold dilutions was performed, wherein 100 μl of solution of antibiotic was withdrawn from each well of column 2, transferred to the corresponding well of column 3, and mixed.
The dilution was then repeated by transfer from column 3 to column 4, and so on, until column 11, when the 100 μl of solution of antibiotic withdrawn from each well of column 11 was discarded.
(§1) The 5×10^6 CFU/ml stock suspension which had been prepared in advance was transferred into a reservoir and 10 μl of the stock suspension were added into each well of columns 2-11 using a multichannel pipette to obtain a final 5×10^5 CFU/ml suspension.
The plate was then incubated at 37° C. with shaking in the ELISA reader and the optical density at 600 nm was read every 20 minutes for a total of 18 hours.
The average OD reading obtained for each antibiotic concentration was calculated and plotted against time to obtain a growth curve.
The MIC was determined as the first antibiotic concentration at which […] by the end of the 18-hour period.

S. aureus [2] = assay: Tertiary stage: antimicrobial activity (ET50/MIC) of extract of degradation products of antibiotic-impregnated ORC pads, single or combination; format: cell-based, Staphylococcus aureus; conditions: impregnated on ORC pad together with 1.26 ng/ml minocycline
Protocol: Solutions comprising different concentrations of antibiotics to be tested were prepared in methanol.
Blank ORC pads of dimensions 1×1.5 inch, weighing between 65-75 mg (70 mg on average), in duplicate, were immersed in the antibiotic solutions and then dried using a rotary evaporator to provide extract of degradation products of antibiotic-impregnated ORC pads.
15 ml test tubes containing 3 ml of sterile PBS were prepared, and the antibiotic-impregnated ORC pads were immersed in the tubes and incubated for 3-5 hours at ambient temperature on a roller mixer (Stuart, Cat#SRT9D).
Each of the above extracts was filtered out using a sterile 0.8/0.2 μm syringe filter into a clean 15 ml tube. These extraction fluids are referred to herein as “extract of degradation products of antibiotic-impregnated ORC”.
Briefly, ORC pads weighing on average 70 mg each were impregnated with the selected antibiotic. Extracts of degradation products of antibiotic-impregnated ORC were prepared by immersion and incubation in 3 ml of sterile PBS for 3 hours at ambient temperature. The ORC degeneration products were then removed, and any remaining ORC particles were filtered out using a […] syringe filter. This extraction fluid was then diluted 10-fold into Muller Hinton growth medium containing bacteria. Bacterial growth was monitored every 20 min for a total of 18 hours according to optical density (OD) at 600 nm, using an ELISA reader.
Since the study included many possible combinations of two antibiotics, each with their own different concentration range, a matrix of possible antibiotic concentrations was designed, and degradation products of ORC were prepared accordingly (see Table 10). Since all the possible combinations could not be fitted into one 96 well plate, a series of MIC experiments were carried out.

S. aureus [3] = assay: Secondary stage: bacterial growth (ET50/MIC) of antibiotics with or without extract of degradation products of ORC; format: cell-based, Staphylococcus aureus; conditions: for Effect of addition of degradation products of ORC on the antibiotic activity: antibiotic with versus without ORC degradation products
Excerpt: ORC pads which had not been impregnated with antibiotic (referred to herein as “blank ORC pads”), were subjected to extraction and degradation in PBS for three hours at ambient temperature. Extract obtained from these blank ORC pads is referred to herein as “blank extract of degradation products of ORC”.
Blank ORC pads were subjected to extraction and degradation in a solution of antibiotic in PBS. Extracts of degradation products obtained from blank ORC pads in a solution of antibiotic in PBS is referred to herein as “extracts of degradation products of blank ORC in antibiotic”.
Due to the acidity of ORC, which provides some antibiotic effect, the size of the pad used was small i.e. approximately 1×1.5 inch, weighing between 65-75 mg (70 mg on average) in order to prevent the ORC from affecting the final pH of the assay and therefore the growth of the bacteria.
15 ml tubes, each containing 3 ml of an antibiotic solution at a known concentration in sterile PBS, were prepared in duplicate.
Blank ORC pads were subjected to extraction and degradation in the antibiotic solution by immersing the ORC pads in the antibiotic solution for 3-5 hours at ambient temperature on a roller mixer (Stuart, Cat#SRT9D).
Blank extract of degradation products of ORC and extract in antibiotic of degradation products of ORC, prepared as described above, were diluted 10 folds in MHBII in sterile 15 ml capped tubes.
as §1
Columns 3 to 6, rows B to F, were filled with the Blank ORC extracted in antibiotic at decreasing concentrations 1 to 5, diluted 10 folds in MHBII. Each sample tested was placed in 4 well repeats for statistical results.
Columns 7 to 10, rows B to F, were filled with the antibiotic solution (AB) at decreasing concentrations 1 to 5, diluted 10 folds in MHBII. Each sample tested was placed in 4 well repeats for statistical results.
Columns 3 to 6, row G, were filled with the blank extract of degradation products of ORC (PBS-ORC) diluted 10 folds in MHBII.
The plate was incubated at 37° C. with shaking in the ELISA reader and the optical density at 600 nm was read every 20 minutes for a total of 18 hours.
The average and standard deviation for OD readings was calculated for each time point of the wells using Excel. The average values were plotted against time to obtain a graph of the bacterial growth curves in the presence of each of the antibiotics tested.
In some cases, the average OD was plotted for a single endpoint of 800 minutes for the various antibiotic treatments and controls.
The average values were also entered into the GraphPad Prism program (GraphPad Software Inc., CA, USA) in order to calculate the Effective Time 50 (ET50) i.e. the time, in minutes, required for the antibiotic to induce a response halfway between the baseline and maximum, where the maximum is the bacterial growth in MHBII with PBS. This provides a quantifiable measure of the efficacy of the antibiotics tested and enables comparison of the various samples tested.

S. aureus [4] = conditions: cited from earlier work

Q: With `CCC[C@@H]1C[C@@H](C(=O)N[C@@H]([C@H]2O[C@H](SC)[C@H](O)[C@@H](O)[C@H]2O)[C@H](C)Cl)N(C)C1` [Clindamycin, clindamycin] as the compound, how does the “MIC as single antibiotics in the absence of ORC (first stage MIC results)” value (S. aureus [1]) read?
A: 0.062 µg/mL

Q: And the “Clindamycin level sufficient for growth inhibition of S. aureus in combination” value (S. aureus [2])?
A: 8.9 ng/mL

Q: And the “Effect of addition of degradation products of ORC on the antibiotic activity” value (“Effect” below) (S. aureus [3])?
A: no effect

Q: Which “Effect” value (S. aureus [3]) does the source give for `CN(C)[C@@H]1C(O)=C(C(N)=O)C(=O)[C@@]2(O)C(O)=C3C(=O)c4c(O)cccc4[C@@](C)(O)[C@H]3C[C@@H]12` [Tetracycline] here?
A: no effect

Q: What about the ET50 (S. aureus [3]; tetracycline 0.025 μg/ml, +ORC degradation products) of the same compound?
A: 517.7 min

Q: And the ET50 (S. aureus [3]; tetracycline 0.025 μg/ml, −ORC)?
A: 531.1 min

Q: And the ET50 (S. aureus [3]; tetracycline 0.05 μg/ml, +ORC degradation products)?
A: 741.1 min

Q: What about the ET50 (S. aureus [3]; tetracycline 0.05 μg/ml, −ORC) of the same compound?
A: 989.9 min

Q: What about the ET50 (S. aureus [3]; tetracycline 0.1 μg/ml, +ORC degradation products) of the same compound?
A: 1470 min

Q: And the ET50 (S. aureus [3]; tetracycline 0.1 μg/ml, −ORC)?
A: 1889 min

Q: And the ET50 (S. aureus [3]; tetracycline 0.2 μg/ml, +ORC degradation products)?
A: >2000 min

Q: What about the ET50 (S. aureus [3]; tetracycline 0.2 μg/ml, −ORC) of the same compound?
A: >2000 min

Q: And the ET50 (S. aureus [3]; tetracycline 0.4 μg/ml, +ORC degradation products)?
A: >2000 min

Q: What about the ET50 (S. aureus [3]; tetracycline 0.4 μg/ml, −ORC) of the same compound?
A: >2000 min

Q: Which “MIC values for S. aureus according to the literature” value (S. aureus [4]) does the source give for Gentamycin [Gentamicin] here?
A: 0.12 to 1 µg/mL

Q: What about the “MIC values found in the present study (primary stage, Example 1)” value (S. aureus [1]; antibiotic alone, no ORC) of the same compound?
A: 0.25 µg/mL

Q: What about the “Effect” value (S. aureus [3]) of the same compound?
A: reduction in the antibiotic activity; also recorded: decreased antibiotic activity; also recorded: lowering of the antibiotic activity; also recorded: impaired

Q: What about the ET50 (S. aureus [3]; gentamycin 0.1 μg/ml, +ORC degradation products) of the same compound?
A: 423.7 min

Q: What about the ET50 (S. aureus [3]; gentamycin 0.1 μg/ml, −ORC) of the same compound?
A: 509.4 min

Q: And the ET50 (S. aureus [3]; gentamycin 0.3 μg/ml, +ORC degradation products)?
A: 429.3 min

Q: And the ET50 (S. aureus [3]; gentamycin 0.3 μg/ml, −ORC)?
A: 1360 min

Q: And the ET50 (S. aureus [3]; gentamycin 0.5 μg/ml, +ORC degradation products)?
A: 423.1 min

Q: And the ET50 (S. aureus [3]; gentamycin 0.8 μg/ml, +ORC degradation products)?
A: 422.7 min

Q: And the ET50 (S. aureus [3]; gentamycin 1 μg/ml, +ORC degradation products)?
A: 446.6 min
